Results taken from patent publication US9567339B2, “Primary carboxamides as BTK inhibitors” (AbbVie Inc., priority 2013, dated 2017).

molecular target: BTK, recombinant human catalytic domain (aa 393-659) (Homo sapiens (Human), UniProt Q06187); assay: In vitro BTK kinase activity measured by time-resolved fluorescence resonance energy transfer (trFRET); assay type: biochemical; conditions: read-out: Btk IC50
Sequence (Q06187 393-659): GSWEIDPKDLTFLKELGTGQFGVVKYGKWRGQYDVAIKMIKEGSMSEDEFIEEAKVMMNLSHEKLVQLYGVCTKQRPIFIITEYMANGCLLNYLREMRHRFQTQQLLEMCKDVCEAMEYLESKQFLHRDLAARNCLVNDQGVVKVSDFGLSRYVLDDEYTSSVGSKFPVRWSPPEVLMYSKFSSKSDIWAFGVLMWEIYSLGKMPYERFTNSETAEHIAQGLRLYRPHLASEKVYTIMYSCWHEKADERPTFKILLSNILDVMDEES

SMILES	IC50 [nM]
C/C=C(/C)C(=O)Nc1cccc(-c2ccc(C(N)=O)c3[nH]c(C4=CCN(S(C)(=O)=O)CC4)cc23)c1C [D.7.1]	< 100
Cc1c(NC(=O)/C=C/CN(C)C)cccc1-c1ccc(C(N)=O)c2[nH]c(C3=CCN(S(C)(=O)=O)CC3)cc12 [D.7.2]	< 100
Cc1c(NC(=O)CCN2CCCCC2)cccc1-c1ccc(C(N)=O)c2[nH]c(C3=CCN(S(C)(=O)=O)CC3)cc12 [D.7.3]	100 to 1000
Cc1c(NC(=O)CC#N)cccc1-c1ccc(C(N)=O)c2[nH]c(C3=CCN(S(C)(=O)=O)CC3)cc12 [D.7.4]	< 100
C=C(C)C(=O)Nc1cccc(-c2ccc(C(N)=O)c3[nH]c(C4=CCN(S(C)(=O)=O)CC4)cc23)c1C [D.7.5]	< 100
C=CC(=O)Nc1cccc(-c2ccc(C(N)=O)c3[nH]c(C4=CCN(S(C)(=O)=O)CC4)cc23)c1C [D.7.6]	< 100
Cc1c(NC(=O)C(F)(F)Cl)cccc1-c1ccc(C(N)=O)c2[nH]c(C3=CCN(S(C)(=O)=O)CC3)cc12 [D.7.7]	< 100
Cc1c(NC(=O)C(C)Cl)cccc1-c1ccc(C(N)=O)c2[nH]c(C3=CCN(S(C)(=O)=O)CC3)cc12 (centres unmarked) [D.7.8]	< 100
C/C=C/C(=O)Nc1cccc(-c2ccc(C(N)=O)c3[nH]c(C4=CCN(S(C)(=O)=O)CC4)cc23)c1C [D.7.9]	< 100
Cc1c(NC(=O)/C=C\C(N)=O)cccc1-c1ccc(C(N)=O)c2[nH]c(C3=CCN(S(C)(=O)=O)CC3)cc12 [D.7.10]	< 100
Cc1c(NC(=O)COc2ccc(F)cc2)cccc1-c1ccc(C(N)=O)c2[nH]c(C3=CCN(S(C)(=O)=O)CC3)cc12 [D.7.11]	< 100
Cc1c(NC(=O)CCN2CCCC2)cccc1-c1ccc(C(N)=O)c2[nH]c(C3=CCN(S(C)(=O)=O)CC3)cc12 [D.7.12]	< 100
Cc1c(NC(=O)COc2ccc(C#N)cc2)cccc1-c1ccc(C(N)=O)c2[nH]c(C3=CCN(S(C)(=O)=O)CC3)cc12 [D.7.13]	< 100
Cc1c(NC(=O)COc2cccnc2)cccc1-c1ccc(C(N)=O)c2[nH]c(C3=CCN(S(C)(=O)=O)CC3)cc12 [D.7.14]	< 100
Cc1c(NC(=O)C2=CCCC2)cccc1-c1ccc(C(N)=O)c2[nH]c(C3=CCN(S(C)(=O)=O)CC3)cc12 [D.7.15]	< 100
CC/C=C(\C)C(=O)Nc1cccc(-c2ccc(C(N)=O)c3[nH]c(C4=CCN(S(C)(=O)=O)CC4)cc23)c1C [D.7.16]	< 100
Cc1c(NC(=O)/C=C\Cl)cccc1-c1ccc(C(N)=O)c2[nH]c(C3=CCN(S(C)(=O)=O)CC3)cc12 [D.7.17]	< 100
COC(=O)/C=C/C(=O)Nc1cccc(-c2ccc(C(N)=O)c3[nH]c(C4=CCN(S(C)(=O)=O)CC4)cc23)c1C [D.7.18]	< 100
Cc1c(NC(=O)C2=CCCCC2)cccc1-c1ccc(C(N)=O)c2[nH]c(C3=CCN(S(C)(=O)=O)CC3)cc12 [D.7.19]	< 100
CCOC(=O)/C=C/C(=O)Nc1cccc(-c2ccc(C(N)=O)c3[nH]c(C4=CCN(S(C)(=O)=O)CC4)cc23)c1C [D.7.20]	< 100
Cc1c(NC(=O)COc2ccccc2)cccc1-c1ccc(C(N)=O)c2[nH]c(C3=CCN(S(C)(=O)=O)CC3)cc12 [D.7.21]	< 100
Cc1c(NC(=O)CF)cccc1-c1ccc(C(N)=O)c2[nH]c(C3=CCN(S(C)(=O)=O)CC3)cc12 [D.7.22]	< 100
Cc1c(NC(=O)CCN(C)C)cccc1-c1ccc(C(N)=O)c2[nH]c(C3=CCN(S(C)(=O)=O)CC3)cc12 [D.7.23]	< 100
Cc1c(NC(=O)COc2ccccn2)cccc1-c1ccc(C(N)=O)c2[nH]c(C3=CCN(S(C)(=O)=O)CC3)cc12 [D.7.24]	< 100

The next lines start with the values.

IC50 [nM]	SMILES
< 100	Cc1c(NC(=O)/C=C/C(N)=O)cccc1-c1ccc(C(N)=O)c2[nH]c(C3=CCN(S(C)(=O)=O)CC3)cc12 [D.7.25]
< 100	CCC(Cl)C(=O)Nc1cccc(-c2ccc(C(N)=O)c3[nH]c(C4=CCN(S(C)(=O)=O)CC4)cc23)c1C (centres unmarked) [D.7.26]
< 100	Cc1c(NC(=O)CCN2CCN(C)CC2)cccc1-c1ccc(C(N)=O)c2[nH]c(C3=CCN(S(C)(=O)=O)CC3)cc12 [D.7.27]
< 100	Cc1c(NC(=O)COc2cccnn2)cccc1-c1ccc(C(N)=O)c2[nH]c(C3=CCN(S(C)(=O)=O)CC3)cc12 [D.7.28]
< 100	Cc1c(NC(=O)C2CCCCC2)cccc1-c1ccc(C(N)=O)c2[nH]c(C3=CCN(S(C)(=O)=O)CC3)cc12 [D.7.29]
< 100	Cc1nc(C(=O)Nc2cccc(-c3ccc(C(N)=O)c4[nH]c(C5=CCN(S(C)(=O)=O)CC5)cc34)c2C)cs1 [D.7.30]
< 100	Cc1c(NC(=O)C2CCCC2)cccc1-c1ccc(C(N)=O)c2[nH]c(C3=CCN(S(C)(=O)=O)CC3)cc12 [D.7.31]
< 100	Cc1cnc(C(=O)Nc2cccc(-c3ccc(C(N)=O)c4[nH]c(C5=CCN(S(C)(=O)=O)CC5)cc34)c2C)s1 [D.7.32]
< 100	Cc1c(NC(=O)C2CCOCC2)cccc1-c1ccc(C(N)=O)c2[nH]c(C3=CCN(S(C)(=O)=O)CC3)cc12 [D.7.33]
< 100	COC1CCCC(C(=O)Nc2cccc(-c3ccc(C(N)=O)c4[nH]c(C5=CCN(S(C)(=O)=O)CC5)cc34)c2C)C1 (centres unmarked) [D.7.34]
< 100	Cc1c(NC(=O)CC(C)C)cccc1-c1ccc(C(N)=O)c2[nH]c(C3=CCN(S(C)(=O)=O)CC3)cc12 [D.7.35]
< 100	Cc1c(NC(=O)C2CCN(C)CC2)cccc1-c1ccc(C(N)=O)c2[nH]c(C3=CCN(S(C)(=O)=O)CC3)cc12 [D.7.36]
100 to 1000	Cc1c(NC(=O)C2CCCN(C)C2)cccc1-c1ccc(C(N)=O)c2[nH]c(C3=CCN(S(C)(=O)=O)CC3)cc12 (centres unmarked) [D.7.37]
< 100	Cc1c(NC(=O)c2cnsc2)cccc1-c1ccc(C(N)=O)c2[nH]c(C3=CCN(S(C)(=O)=O)CC3)cc12 [D.7.38]
< 100	Cc1c(NC(=O)c2cccnc2)cccc1-c1ccc(C(N)=O)c2[nH]c(C3=CCN(S(C)(=O)=O)CC3)cc12 [D.7.39]
< 100	Cc1c(NC(=O)C(C)C)cccc1-c1ccc(C(N)=O)c2[nH]c(C3=CCN(S(C)(=O)=O)CC3)cc12 [D.7.40]
< 100	CCC(=O)Nc1cccc(-c2ccc(C(N)=O)c3[nH]c(C4=CCN(S(C)(=O)=O)CC4)cc23)c1C [D.7.41]

same assay, conditions: trFRET, 0.001 mM ATP, biotin-TYR1 peptide substrate; read-out: Btk IC50

SMILES	IC50 [nM]
C#CC(=O)NCc1ccccc1-c1cc2c(-c3cccc(NC(=O)c4nccs4)c3C)ccc(C(N)=O)c2[nH]1 [D.1.11]	100 to 1000
NC(=O)c1ccc(-c2ccccc2NC(=O)Cn2sc3ccccc3c2=O)c2cc[nH]c12 [D.2.1]	1000 to 10000
Cc1c(NC(=O)c2nccs2)cccc1-c1ccc(C(N)=O)c2[nH]cc(NC(=O)CC#N)c12 [D.3.1]	1000 to 10000
C=CC(=O)Nc1c[nH]c2c(C(N)=O)ccc(-c3cccc(NC(=O)c4nccs4)c3C)c12 [D.3.2]	1000 to 10000
C/C=C/C(=O)Nc1c[nH]c2c(C(N)=O)ccc(-c3cccc(NC(=O)c4nccs4)c3C)c12 [D.3.3]	1000 to 10000
C=C(C)C(=O)Nc1c[nH]c2c(C(N)=O)ccc(-c3cccc(NC(=O)c4nccs4)c3C)c12 [D.3.4]	1000 to 10000
CC#CC(=O)Nc1c[nH]c2c(C(N)=O)ccc(-c3cccc(NC(=O)c4nccs4)c3C)c12 [D.3.5]	1000 to 10000
Cc1c(NC(=O)c2nccs2)cccc1-c1ccc(C(N)=O)c2[nH]cc(NC(=O)COc3ccc(F)cc3)c12 [D.3.6]	1000 to 10000
CNC(=O)/C=C/C(=O)Nc1cccc(-c2ccc(C(N)=O)c3[nH]ccc23)c1 [D.4.1]	1000 to 10000
CN(C)C(=O)/C=C/C(=O)Nc1cccc(-c2ccc(C(N)=O)c3[nH]ccc23)c1 [D.4.2]	1000 to 10000
CCNC(=O)/C=C/C(=O)Nc1cccc(-c2ccc(C(N)=O)c3[nH]ccc23)c1 [D.4.3]	1000 to 10000
NC(=O)c1ccc(-c2cccc(NC(=O)/C=C/C(=O)NC3CC3)c2)c2cc[nH]c12 [D.4.4]	1000 to 10000
CC(=O)N1CCC(c2cc3c(-c4cccc(NC(=O)c5ccc(C6CC6)cc5)c4C)ccc(C(N)=O)c3[nH]2)CC1 [D.5.1]	100 to 1000
C=C(CN(C)C)C(=O)Nc1cccc(-c2ccc(C(N)=O)c3[nH]ccc23)c1 [D.6.1]	< 100
C=C(CN1CCOCC1)C(=O)Nc1cccc(-c2ccc(C(N)=O)c3[nH]ccc23)c1 [D.6.2]	< 100

Continued, values first:

IC50 [nM]	SMILES
< 100	CCOC(=O)/C=C/C(=O)Nc1cccc(-c2ccc(C(N)=O)c3[nH]ccc23)c1C [D.8.1]
100 to 1000	Cc1c(NC(=O)/C=C/c2cnn(C)c2)cccc1-c1ccc(C(N)=O)c2[nH]ccc12 [D.8.2]
100 to 1000	Cc1c(NC(=O)/C=C/c2ccccn2)cccc1-c1ccc(C(N)=O)c2[nH]ccc12 [D.8.3]
100 to 1000	Cc1c(NC(=O)/C=C/c2cccnc2)cccc1-c1ccc(C(N)=O)c2[nH]ccc12 [D.8.4]
100 to 1000	Cc1c(NC(=O)/C=C/c2nccs2)cccc1-c1ccc(C(N)=O)c2[nH]ccc12 [D.8.5]
100 to 1000	Cc1c(NC(=O)/C=C/C2CC2)cccc1-c1ccc(C(N)=O)c2[nH]ccc12 [D.8.6]
100 to 1000	C=C(C(=O)Nc1cccc(-c2ccc(C(N)=O)c3[nH]ccc23)c1C)c1ccccc1 [D.8.7]
100 to 1000	Cc1c(NC(=O)/C=C/C(C)C)cccc1-c1ccc(C(N)=O)c2[nH]ccc12 [D.8.8]
100 to 1000	C/C=C/C(=O)Nc1cccc(-c2ccc(C(N)=O)c3[nH]ccc23)c1C [D.8.9]
1000 to 10000	C=C(C)C(=O)Nc1cccc(-c2ccc(C(N)=O)c3[nH]ccc23)c1C [D.8.10]
1000 to 10000	C=C(CC)C(=O)Nc1cccc(-c2ccc(C(N)=O)c3[nH]ccc23)c1C [D.8.11]
1000 to 10000	CC(=O)Nc1cccc(-c2ccc(C(N)=O)c3[nH]ccc23)c1C [D.8.12]
1000 to 10000	Cc1c(NC(=O)CCN2CCOCC2)cccc1-c1ccc(C(N)=O)c2[nH]ccc12 [D.8.13]
1000 to 10000	Cc1c(NC(=O)CCN2CCCC2)cccc1-c1ccc(C(N)=O)c2[nH]ccc12 [D.8.14]
< 100	CCNC(=O)/C=C\C(=O)Nc1cccc(-c2ccc(C(N)=O)c3[nH]ccc23)c1C [D.8.15]
100 to 1000	COCCNC(=O)/C=C\C(=O)Nc1cccc(-c2ccc(C(N)=O)c3[nH]ccc23)c1 [D.9.1]
< 100	CCNC(=O)/C=C\C(=O)Nc1cccc(-c2ccc(C(N)=O)c3[nH]ccc23)c1 [D.9.2]
< 100	C#CC(=O)N1CC(N(C)c2ccc(C(N)=O)c3[nH]c(C)cc23)C1 [D.10.1]
